A compilation of properties of binary mixtures (doi:10.1016/j.molliq.2016.07.039)

Assay: xn = mol fraction of the nth substance listed
Settings: 101 kPa

CC[N+](CC)(CC)CC.[Cl-] + CC(=O)CCC(=O)O
x1 = 0.25
Settings	electrical conductivity [S/m]	viscosity [mPa·s]
293.15 K	0.075	130.1
298.15 K	0.105	–
303.15 K	0.138	69.8
308.15 K	0.172	–
313.15 K	0.215	39.1
318.15 K	0.265	–
323.15 K	0.318	27.1
328.15 K	0.373	–
333.15 K	0.453	18.71
338.15 K	0.524	–
343.15 K	0.587	–

CC(=O)CCC(=O)O + CCCC[N+](CCCC)(CCCC)CCCC.[Cl-]
x1 = 0.75
Settings	electrical conductivity [S/m]	viscosity [mPa·s]
293.15 K	0.035	121.7
298.15 K	0.045	–
303.15 K	0.06	65.6
308.15 K	0.072	–
313.15 K	0.089	36.7
318.15 K	0.113	–
323.15 K	0.129	25.5
328.15 K	0.151	–
338.15 K	0.213	–
